Results on five molecules are retold here after ChEMBL document CHEMBL1949670, “Probes for narcotic receptor mediated phenomena. 44. Synthesis of an N-substituted 4-hydroxy-5-(3-hydroxyphenyl)morphan with high affinity and selective μ-antagonist activity” (Eur J Med Chem, 2012).

Molecules are shown by their SMILES.

One experiment deals with Mus musculus. In words: Antinociceptive activity in sc dosed mouse. In kind it is functional.
The target of experiment [1] is Mu-type opioid receptor (Homo sapiens) (UniProt P35372). The settings on record: CHO.
Mu-type opioid receptor (Homo sapiens), sequence (P35372 whole entry): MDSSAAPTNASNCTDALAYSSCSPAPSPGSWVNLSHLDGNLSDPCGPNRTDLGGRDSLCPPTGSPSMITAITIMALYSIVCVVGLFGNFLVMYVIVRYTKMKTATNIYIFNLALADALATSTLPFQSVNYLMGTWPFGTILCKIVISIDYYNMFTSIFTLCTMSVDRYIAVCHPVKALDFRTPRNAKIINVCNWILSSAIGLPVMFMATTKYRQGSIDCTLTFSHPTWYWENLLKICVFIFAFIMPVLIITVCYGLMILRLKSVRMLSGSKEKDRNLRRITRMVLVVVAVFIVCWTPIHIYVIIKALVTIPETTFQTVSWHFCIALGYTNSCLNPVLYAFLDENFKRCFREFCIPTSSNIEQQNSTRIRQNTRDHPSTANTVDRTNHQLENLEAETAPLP
Description: Antagonist activity at human mu receptor expressed in CHO cells membrane assessed as inhibition of DAMGO-induced [35S]GTPgammaS binding after 3 hrs by liquid scintillation counting

Regarding `CN1CC[C@]23c4c5ccc(O)c4O[C@H]2[C@@H](O)C=C[C@@]3(O)[C@H]1C5`, the ED50 in the experiment with Mus musculus came to 2.9 mg/kg.

In experiment [1], `CN1CC2(OCCO2)[C@]2(c3cccc(O)c3)CCC[C@H]1C2` (racemic) had an ED50 of 89 nM and a Ke of 154 nM.

Take `Oc1cccc([C@@]23CCC[C@@H](C2)N(CCc2ccccc2)C[C@H]3O)c1` (racemic): the Ke in experiment [1] was 12 nM.

`CN1CC[C@]23c4c5ccc(O)c4O[C@H]2[C@@H](O)CC[C@H]3[C@H]1C5` [DIHYDROMORPHINE]: the ED50 with Mus musculus was 1.8 mg/kg.

In the experiment with Mus musculus, `CN1CC[C@]23c4c5ccc(O)c4O[C@H]2[C@@H](O)CC[C@@]3(O)[C@H]1C5` [HYDROMORPHINOL] registered an ED50 of 1.1 mg/kg.
